≈ marks a conversion by molar mass, not a printed value. Positions of bridges follow the written chain, without caps; N, C: chain ends. Residues, ends and D or L forms follow the SMILES beside them. No end group written: not given here.
What was measured:
[1] = tested on: Listeria; assay: antimicrobial activity of purified peptide (FIG. 1); type: cell-based
Method: (§1) The antimicrobial peptide was purified from a 0.5 L overnight culture of L. salivarius DPC6502 grown in MRS-IM-G media. The cells were removed by centrifugation at 8,000×g for 15 min, and the supernatant applied to a column containing 10 ml SP sepharose Fast flow cation-exchange resin (GE Healthcare, UK) previously equilibrated with 50 mM sodium acetate buffer, pH 4.5. The column was washed with 50 mM sodium acetate buffer, pH 4.5 containing 0.3 M NaCl, the bioactive peptide was subsequently eluted from the column using 50 mM sodium acetate buffer, pH 4.5 containing 1.0 M NaCl. The eluate was applied to a 2.0 g (12 ml volume) C18 Bond Elute column (Phenomenex, Cheshire, UK) pre-equilibrated with methanol and water. […] The column was pre-equilibrated with 10% acetonitrile containing 0.1% (vol/vol) TFA, followed by separation and elution of the bioactive peptide by gradient RP-HPLC using 0.1% (vol/vol) TFA and acetonitrile concentrations that ranged from 10% to 30% (vol/vol), from 5 to 45 min at a flow rate of 1.0 ml min^−1 Absorbance was monitored at a wavelength of 214 nm. Antimicrobial peptide activity was monitored throughout the purification procedure by well diffusion assay using the sensitive indicator strain L. delbrueckii subsp. bulgaricus LMG6901. […]

[2] = tested on: Staphylococcus aureus; assay: as above; type: cell-based
[3] = tested on: L. salivarius UCC118; assay: inhibition of strains closely related to the producer; type: cell-based, Lactobacillus salivarius
[4] = tested on: L. delbrueckii subsp. bulgaricus; assay: antimicrobial activity of purified peptide (well diffusion, FIG. 1); type: cell-based, Lactobacillus delbrueckii subsp. bulgaricus
Method: as §1

[5] = tested on: bovine mastitis isolate S. aureus DPC5245; conditions: cited from earlier work
[6] = tested on: E. sakazakii strains
[7] = tested on: L. monocytogenes NCTC 11994; conditions: BHI broth, 37° C., 24 h, OD590
[8] = tested on: E. coli strains; conditions: broth-based MIC50 assay
[9] = tested on: S. aureus DPC5246; conditions: BHI broth, 37° C., 24 h, OD590

## Bactofensin LS1: 22 aa cationic class II antimicrobial peptide of SEQ ID NO: 2 purified from L. salivarius DPC6502 (KRKKHRCRVYNNGMPTGMYRWC; disulfide 7-22; listed as Lactobacillus salivarius)
[1]
  antimicrobial activity: active
[2]
  antimicrobial activity: active
[3]
  inhibition of closely related strains: inhibits
[4]
  antimicrobial activity: active

## lacticin 3147
[5]
  MIC50: 7 to 8 µM

## CSCC[C@H](NC(=O)CNC(=O)[C@@H](NC(=O)[C@@H]1CCCN1C(=O)[C@H](CCSC)NC(=O)CNC(=O)[C@H](CC(N)=O)NC(=O)[C@H](CC(N)=O)NC(=O)[C@H](Cc1ccc(O)cc1)NC(=O)[C@@H](NC(=O)[C@H](CCCNC(=N)N)NC(=O)[C@H](CS)NC(=O)[C@H](CCCNC(=N)N)NC(=O)[C@H](Cc1c[nH]cn1)NC(=O)[C@H](CCCCN)NC(=O)[C@H](CCCCN)NC(=O)[C@H](CCCNC(=N)N)NC(=O)[C@@H](N)CCCCN)C(C)C)[C@@H](C)O)C(=O)N[C@@H](Cc1ccc(O)cc1)C(=O)N[C@@H](CCCNC(=N)N)C(=O)N[C@@H](Cc1c[nH]c2ccccc12)C(=O)N[C@@H](CS)C(=O)O [synthetic Bactofensin LS1] (H-KRKKHRCRVYNNGMPTGMYRWC-OH; N-terminus assumed)
[6]
  concentration that did not inhibit (MIC50 assay): > 50 µM
[7]
  MIC50 (concentration sufficient to inhibit growth by 50%): 5 µM (≈ 13.9 µg/mL)
[8]
  concentration that did not inhibit (MIC50 assay): > 50 µM
[9]
  MIC50 (concentration sufficient to inhibit growth by 50%): 5 µM (≈ 13.9 µg/mL)
